Values of other authors, collected in US20170246163A1, “METHODS OF IMPROVING BALANCE, GAIT OR BOTH IN PATIENTS WITH NEUROLOGICAL DISEASE” (priority 2016, published 2017).
Read-outs that look alike come from different tables or passages of the source.

Assays:
[1] = tested on: PD patients experiencing frequent falls; conditions: crossover versus placebo, p<0.05
[2] = tested on: subjects with mild-to-moderate Alzheimer's disease; conditions: 48 weeks
[3] = tested on: subjects with moderate Alzheimer's disease; conditions: Phase 2
[4] = tested on: patients with either PD, PD-MCI, or PDD; conditions: 176 patients with PD, 12 months, p<0.01

## COc1cc2c(cc1OC)C(=O)C(CC1CCN(Cc3ccccc3)CC1)C2 (stereo not drawn) [donepezil]
[1]
  falls reported while on treatment: 0.13 falls/day
[2]; donepezil alone
  subjects who experienced falls: 6%
[3]; donepezil alone
  subjects who experienced falls: 6%

## Fc1ccc2c(CCNCc3cccc(OCC(F)(F)C(F)F)c3)c[nH]c2c1 [idalopirdine]
[3]; on top of donepezil
  subjects who experienced falls: 2%

## O=S(=O)(c1ccccc1)c1cnc2c(N3CCNCC3)cccc2c1 [intepirdine, 3-phenylsulfonyl-8-piperazinyl-1yl-quinoline]
[2]; on top of donepezil
  subjects who experienced falls: 2%

## CCN(C)C(=O)Oc1cccc([C@H](C)N(C)C)c1 [rivastigmine]
[4]
  lowering of the incidence of falls relative to baseline: 50%
